From publication PMC12164026, “Plant-derived nodule-specific cysteine-rich peptides as potent antifungal agents against Cryptococcus neoformans: mechanisms of action, chimeric peptide enhancement, and immunomodulatory effects” (Current Research in Microbial Sciences, 2025)
In brackets after ≈: the same amount, converted by molar mass. Read-outs that look alike come from different tables or passages of the source. Peptide text beside a SMILES is read from it.

Assays:
[1] = system: Cryptococcus neoformans IFM 5844; type: cell-based; details: IFM 5844, 48 h
Experimental: (§1) The susceptibility of Cryptococcus neoformans IFM 5844 to 20 peptides (Supplementary Table 1) was tested in a widely used synthetic medium to cultivate yeasts (YNB) and in a serum-free medium what is able to support the proliferation of macrophage cells (X-VIVO).
X-VIVO medium: half-diluted X-VIVO™ 15 cell culture medium (Lonza, Verviers, Belgium).
(§2) The minimal inhibitory concentration (MIC) of each peptide was determined by using micro-dilution assay. The C. neoformans suspensions were adjusted to 5 × 10^4 cells/mL concentration in either YNB or X-VIVO medium. A 96-well microtiter plate was prepared by adding 95 µL suspension per well followed by 5 µL of serially two-fold diluted peptide solutions achieving a final volume of 100 µl. The concentration of the peptides ranged from 25 to 0.39 µM. For control samples, 5 µL pure medium was added to the yeast cell suspension instead of peptides. Plates were incubated at 37 °C for 48 h in X-VIVO medium and 30 °C for 72 h in YNB medium. After incubation, optical density was measured at 620 nm using a SPECTROstar Nano plate reader (BMG LabTech, Offenburg, Germany). […] The experiments were carried out in three independent biological replicates.

[2] = system: C. neoformans IFM 5844 protoplasts; experiment: Susceptibility of protoplasts to peptide, CFU counts; type: cell-based, Cryptococcus neoformans; details: 30 min, YNB + 0.8 M sorbitol
Experimental: (§3) The C. neoformans IFM 5844 strain was grown in YPD nutrient solution at 30 °C for 12 h by vigorous shaking until the exponential phase was reached (about 5 × 10^7 cells/mL).
For protoplast preparation cells were harvested by centrifugation and re-suspended in 20 mL of pre-treatment buffer (10 mM Tris–HCl, pH 9; 5 mM EDTA-Na2) supplemented with 0.1 % 2-mercaptoethanol. After incubation at room temperature for 20 min, the samples were centrifuged and the cell pellet was washed with 0.8 M sorbitol solution. The pellet was then re-suspended in 20 mL of protoplasting solution (prepared by dissolving 1 g lyophilised Helix pomatia digestive enzyme in 100 mL sorbitol) and the suspension was incubated for 60 min at room temperature. Protoplast formation was monitored every 30 min under bright field microscope. Once formed, protoplasts were collected by centrifugation, washed twice with 0.8 M sorbitol, and their concentration was determined in a Bürker chamber.
To assess peptide susceptibility, 2 × 10^6 protoplasts and the same number of intact cells were treated separately with X1-NCR247C peptide at 0.78 or 0.39 µM in YNB supplemented with 0.8 M sorbitol for 30 min at 30 °C. […] Plates were incubated for 3 days at 30 °C, after which colony forming units were counted to determine the survival rate of peptide-treated cells and protoplasts.

[3] = system: C. neoformans IFM 5844 cells; experiment: Cell membrane permeability, calcein-AM assay by flow cytometry; type: cell-based, Cryptococcus neoformans; details: half-MIC, 2 h, 30 °C, YNB
Experimental: The effect of the peptides on the cell membrane permeability of C. neoformans IFM 5844 cells was checked by flow cytometry with calcein-AM assay ([Olson, et al., 2001]). Calcein-acetoxymethyl ester (calcein-AM) is a membrane-permeable live-cell dye that, upon entering the cell, is cleaved by intracellular esterases, converting it into calcein, a membrane-impermeable fluorescent marker. The assay was carried out by suspending a total of 1 × 10^7 cells in 100 µl YNB medium containing 20 µg/mL indomethacin (Sigma-Aldrich, Saint Louis, MO, USA) and incubating them at 30 °C for 30 min to inhibit calcein transporters. Following this pre-treatment, membrane-permeable calcein-AM (Invitrogen, Waltham, MA, USA) was added to a final concentration of 5 µg/mL, and the samples were incubated at 30 °C for 3 h allowing the calcein-AM to enter the cells where esterases converted it to fluorescent calcein. After incubation, cells were washed twice with sterile distilled water and subsequently exposed to peptides at half-MIC concentrations in YNB medium for 2 h at 30 °C. Following peptide treatment, cells were washed twice with sterile distilled water, and fluorescence intensity was measured using a FlowSight® flow cytometer (Amnis-EMD Millipore) equipped with a 488-nm excitation laser. Intact cells stained with calcein-AM but not exposed to peptides served as controls. To ensure statistical reliability, four independent experiments were conducted, and fluorescence intensity was recorded from 10,000 cells per sample during each experiment.

[4] = system: Cryptococcus neoformans IFM 5844; experiment: microbe, parasite or virus in culture; type: cell-based; details: IFM 5844, 48 h; read-out: MIC
Experimental: as §1
YNB medium: five-fold diluted Difco Yeast Nitrogen Base w/o Amino Acids medium (Becton, Dickinson and Company, Sparks, MD, USA) supplemented with 1 % dextrose
as §2

[5] = system: C. neoformans IFM 5844 intact cells; experiment: Susceptibility of intact cells to peptide, CFU counts; type: cell-based, Cryptococcus neoformans; details: 30 min, YNB + 0.8 M sorbitol
Experimental: as §3
To assess peptide susceptibility, 2 × 10^6 protoplasts and the same number of intact cells were treated separately with X1-NCR247C peptide at 0.78 or 0.39 µM in YNB supplemented with 0.8 M sorbitol for 30 min at 30 °C. […] Fifty microliters from each dilution were mixed into 2 mL of top-agar (0.8 M sorbitol with 1 % agar) and spread onto the surface of YPD solid medium supplemented with 0.8 M sorbitol. Plates were incubated for 3 days at 30 °C, after which colony forming units were counted to determine the survival rate of peptide-treated cells and protoplasts.

C. neoformans cells = experiment: Effect of X1-NCR247C and calcofluor white on CFU; type: cell-based, Cryptococcus neoformans
Experimental: To assess the effect of X1-NCR247C peptide and calcofluor white, C. neoformans cells were subjected to different treatments. […] For staining, cells were treated with calcofluor white at 2.5 µg/mL for the same duration. As a control, cells were incubated only with calcofluor white for 20 min.
For combined treatment, cells were first exposed to calcofluor white (2.5 µg/mL) for 5 min, followed by the addition of X1-NCR247C (0.39 µM), and the incubation continued for 15 additional minutes. Following treatment, cells were washed once with sterile distilled water to remove residual peptide and dye. Serial 10-, 100-, 1000-, and 10,000-fold dilutions were prepared, and 50 µL from each dilution was plated onto solid YPD medium in triplicate. After 48 h of incubation at 30 °C, colony-forming units were counted to determine cell viability under each condition.

[6] = system: C. neoformans IFM 5844 cells; experiment: Short-term sub-MIC killing, CFU counts; type: cell-based, Cryptococcus neoformans; details: for proportion of viable cells (CFU relative to control): 0.19 µM (half-MIC), YNB, 2 × 10^6 cells/mL; for reduction in colony-forming units: 30 min
Experimental: To assess the time-dependent fungicidal activity of X1-NCR247C, C. neoformans cells cultivated for 16 h at 30 °C were collected by centrifugation and washed twice with sterile distilled water. […] Following treatment, cells were pelleted by centrifugation washed with distilled water and serially diluted 10-fold and 100-fold. Fifty microliters of each dilution were plated onto solid YPD medium in triplicate.
After treatment, the cells were pelleted by centrifugation, washed with distilled water and serially diluted 10-fold and 100-fold. Fifty microliters of each dilution were spread onto solid YPD medium in triplicate. For both experimental setups colony forming unit (CFU) counts were determined after 48-hours incubation at 30 °C. The CFU values of peptide-treated samples were compared to untreated control samples, providing insights into the extent of fungal viability reduction. Three independent biological replicates were performed.

**Q.** What does the source list for `CSCC[C@H](NC(=O)[C@H](CCCCN)NC(=O)[C@H](Cc1ccccc1)NC(=O)[C@H](CC(N)=O)NC(=O)[C@H](CC(C)C)NC(=O)[C@@H]1CCCN1C(=O)[C@@H](N)CCCNC(=N)N)C(=O)N[C@@H](CC(C)C)C(=O)N[C@@H](CCCNC(=N)N)C(=O)N[C@@H](Cc1ccccc1)C(=O)N[C@@H](Cc1c[nH]c2ccccc12)C(=O)NCC(=O)N[C@@H](CCC(N)=O)C(=O)N[C@@H](CCC(N)=O)C(=O)N[C@@H](CCC(N)=O)C(=O)N[C@@H](CS)C(=O)N[C@@H](CCCNC(=N)N)C(=O)N[C@@H](CCCNC(=N)N)C(=O)N1CCC[C@H]1C(=O)N[C@@H](CC(C)C)C(=O)N[C@@H](Cc1ccc(O)cc1)C(=O)N[C@@H](CS)C(=O)N[C@@H](CCCNC(=N)N)C(=O)N[C@@H](CCCNC(=N)N)C(=O)N[C@@H](CCCNC(=N)N)C(N)=O` [X1-NCR247C] (H-RPLNFKMLRFWGQQQCRRPLYCRRR-NH2; N-terminus assumed)?
**A.** MIC [1]: 3.12 µM (≈ 10.3 µg/mL); CFU count reduction relative to untreated control ([2]; 0.39 µM): 43%; CFU count reduction relative to untreated control ([2]; 0.78 µM): 83%; calcein leakage / membrane permeability disruption [3]: slightly weaker effect; MIC [4]: 1.56 µM (≈ 5.16 µg/mL); CFU count reduction relative to untreated control ([5]; 0.39 µM): 97%; CFU count reduction relative to untreated control ([5]; 0.78 µM): 99%; effect on CFU counts (C. neoformans cells; calcofluor white (2.5 µg/mL) pre-treatment 5 min, then peptide 0.39 µM for 15 min): no reduction in the number of colony-forming units was observed; effect on CFU counts (C. neoformans cells; peptide 0.39 µM (MIC) alone, 20 min, YNB, p ≤ 0.0001): significantly decrease cell viability; proportion of viable cells (CFU relative to control) ([6]; 5 min): 25%; proportion of viable cells (CFU relative to control) ([6]; 60 min): 5%; reduction in colony-forming units ([6]; half-MIC (0.19 µM), p ≤ 0.001): highly significant decrease; reduction in colony-forming units ([6]; quarter-MIC, p ≤ 0.05): notable reduction
